The source made the active and inactive calls. No cut-off for these calls is given here.
Experiments:
Rattus norvegicus [1] = assay: Analgesic activity in po dosed Sprague-Dawley rat after 15 to 90 mins by tail flick test; format: functional
Mus musculus [2] = assay: Analgesic activity in po dosed mouse assessed as inhibition of acetic acid-induced writhing administered 30 mins prior to acetic acid challenge measured after 5 mins for 20 mins; format: functional
Rattus norvegicus [3] = assay: Antipsychotic activity in rat assessed as reduction of methamphetamine-induced hyperactivity at 5 mg/kg, po administered prior to methamphetamine challenge relative to vehicle-treated control; format: functional; design: scale not given: the % may be the effect or the level left
Mus musculus [4] = assay: Antianxiety activity in albino BALB/cJ mouse assessed as reduction in footshock-induced fighting behavior at 5 mg/kg, po after 30 to 90 mins; format: functional; design: scale not given: the % may be the effect or the level left
Mus musculus [5] = assay: Analgesic activity in mouse assessed as inhibition of acetic acid-induced writhing at 10 mg/kg, po administered 30 mins prior to acetic acid challenge measured after 5 mins for 20 mins; format: functional
[6] = Acute toxicity in po dosed mouse; format: organism-based; conditions: in vivo
Rattus norvegicus [7] = assay: Antihypertensive activity in spontaneously hypertensive rat model assessed as reduction in blood pressure at 1 mg/kg, po after 24 hrs; format: functional; design: scale not given: the % may be the effect or the level left
Rattus norvegicus [8] = assay: Antihypertensive activity in spontaneously hypertensive rat model assessed as reduction in blood pressure at 3 mg/kg, po after 3 hrs; format: functional; design: scale not given: the % may be the effect or the level left
Rattus norvegicus [9] = assay: Antihypertensive activity in spontaneously hypertensive rat model assessed as reduction in blood pressure at 1 mg/kg, po after 3 hrs; format: functional; design: scale not given: the % may be the effect or the level left
Rattus norvegicus [10] = assay: Antianxiety activity in Long-Evans rat assessed as reduction in motor activity at 5 mg/kg, po after 2 hrs relative to vehicle-treated control; format: functional; design: scale not given: the % may be the effect or the level left
Rattus norvegicus [11] = assay: Antihypertensive activity in spontaneously hypertensive rat model assessed as reduction in blood pressure at 3 mg/kg, po after 24 hrs; format: functional; design: scale not given: the % may be the effect or the level left
Rattus norvegicus [12] = assay: Antianxiety activity in Long-Evans rat assessed as reduction in motor activity at 10 mg/kg, po after 2 hrs relative to vehicle-treated control; format: functional; design: scale not given: the % may be the effect or the level left
Mus musculus [13] = assay: Antianxiety activity in albino BALB/cJ mouse assessed as reduction in footshock-induced fighting behavior at 10 mg/kg, po after 30 to 90 mins; format: functional; design: scale not given: the % may be the effect or the level left
Rattus norvegicus [14] = species on record: Rattus norvegicus; assay: animal or person; format: functional; conditions: Charles River, route oral
Description: Antidiarrheal activity in Charles River rat assessed as inhibition of castor oil-induced diarrhea by measuring protected animals at 0.5 mg/kg, po administered 1 hr prior to castor oil challenge measured after 1 hr relative to vehicle-treated control

CC1CCc2c(c3c(O)cc(CCCCCc4ccc(F)cc4)cc3oc2=O)C1 (stereo not drawn)
Activity (Rattus norvegicus [1]): inactive
inhibition (Mus musculus [2]): inactive

CC1CCc2c(c3c(O)cc(C(C)CCCN(C)C)cc3oc2=O)C1 (stereo not drawn)
Activity (Rattus norvegicus [1]): inactive
inhibition (Mus musculus [2]): inactive

CC(CCCc1ccc(F)cc1)c1cc(O)c2c(c1)OC(C)(C)C1=C2CNCC1 (stereo not drawn)
Activity (Rattus norvegicus [1]): inactive
inhibition (Mus musculus [2]): inactive

CC(CCc1ccc(F)cc1)c1cc(O)c2c(c1)OC(C)(C)C1=C2CN(Cc2ccccc2)CC1 (stereo not drawn)
Activity (Rattus norvegicus [1]): inactive
inhibition (Mus musculus [2]): inactive

CC(CCc1ccc(F)cc1)C(C)c1cc(O)c2c3c(c(=O)oc2c1)CCN(Cc1ccccc1)C3 (stereo not drawn)
Activity (Rattus norvegicus [1]): inactive
inhibition (Mus musculus [2]): inactive

CC(CCCc1ccc(F)cc1)c1cc(O)c2c3c(c(=O)oc2c1)CCC3 (stereo not drawn)
Activity (Rattus norvegicus [1]): inactive
inhibition (Mus musculus [2]): inactive

Cc1ccc(CCCC(C)c2cc(O)c3c4c(c(=O)oc3c2)CCC(C)C4)cc1 (stereo not drawn)
Activity (Rattus norvegicus [1]): inactive
inhibition (Mus musculus [2]): inactive

CC1CCc2c(c3c(O)cc(C(C)C(C)CCc4ccc(F)cc4)cc3oc2=O)C1 (stereo not drawn)
Activity (Rattus norvegicus [1]): inactive
inhibition (Mus musculus [2]): inactive

CCCCCc1cc(O)c2c(c1)OC(C)(C)C1=C2CN(Cc2ccccc2)CC1
Activity (Rattus norvegicus [1]): inactive
inhibition (Mus musculus [2]): inactive

CC1CCc2c(c3c(O)cc(C(C)C(C)CCCc4ccc(F)cc4)cc3oc2=O)C1 (stereo not drawn)
Activity (Rattus norvegicus [1]): inactive
inhibition (Mus musculus [2]): inactive

CC1CCC2=C(C1)c1c(O)cc(CCCCCc3ccc(F)cc3)cc1OC2(C)C (stereo not drawn)
Activity (Rattus norvegicus [3]): 39%
Activity (Mus musculus [4]): 36%
inhibition in vivo at 10 mg/kg (Mus musculus [5]): 41%
LD50 [6]: ≥ 1000 mg/kg
Activity (Rattus norvegicus [7]): 9%
Activity (Rattus norvegicus [8]): 27%
Activity (Rattus norvegicus [9]): 6%
Activity (Rattus norvegicus [10]): 16%
Activity (Rattus norvegicus [11]): 17%

CNC1=Nc2ccc(Cl)cc2C(c2ccccc2)=[N+]([O-])C1.Cl [CHLORDIAZEPOXIDE HYDROCHLORIDE]
Activity (Rattus norvegicus [12]): 54%
Activity (Mus musculus [13]): 53%
Activity (Rattus norvegicus [10]): 26%

CC(CCCc1ccc(F)cc1)c1cc(O)c2c3c(c(=O)oc2c1)CCN(Cc1ccccc1)C3 (stereo not drawn)
Activity (Rattus norvegicus [1]): inactive
inhibition (Mus musculus [2]): inactive

CC(CCCc1ccc(F)cc1)C(C)c1cc(O)c2c3c(c(=O)oc2c1)CCN(Cc1ccccc1)C3 (stereo not drawn)
Activity (Rattus norvegicus [1]): inactive
inhibition (Mus musculus [2]): inactive

CCCCCc1cc(O)c2c3c(c(=O)oc2c1)CCN(Cc1ccccc1)C3
Activity (Rattus norvegicus [1]): inactive
inhibition (Mus musculus [2]): inactive

C#CCN1CCC2=C(C1)c1c(O)cc(C(C)C(C)CCCc3ccc(F)cc3)cc1OC2(C)C (stereo not drawn)
Activity (Rattus norvegicus [3]): 0%
Activity (Mus musculus [4]): 23%
inhibition in vivo at 10 mg/kg (Mus musculus [5]): 35%
LD50 [6]: ≥ 1000 mg/kg
inhibition in vivo at 0.5 mg/kg (Rattus norvegicus [14]): 0%
Activity (Rattus norvegicus [10]): 46%

Cc1ccc(CCCC(C)c2cc(O)c3c(c2)OC(C)(C)C2=C3CNCC2)cc1 (stereo not drawn)
Activity (Rattus norvegicus [1]): inactive
inhibition (Mus musculus [2]): inactive

CC1CCc2c(c3c(O)cc(C(C)CCCCc4ccc(F)cc4)cc3oc2=O)C1 (stereo not drawn)
Activity (Rattus norvegicus [1]): inactive
inhibition (Mus musculus [2]): inactive

CC(CCc1ccc(F)cc1)C(C)c1cc(O)c2c(c1)OC(C)(C)C1=C2CN(Cc2ccccc2)CC1 (stereo not drawn)
Activity (Rattus norvegicus [1]): inactive
inhibition (Mus musculus [2]): inactive

CC(CCCc1ccc(F)cc1)C(C)c1cc(O)c2c(c1)OC(C)(C)C1=C2CN(Cc2ccccc2)CC1 (stereo not drawn)
Activity (Rattus norvegicus [1]): inactive
inhibition (Mus musculus [2]): inactive

Cc1ccc(CCCC(C)c2cc(O)c3c(c2)OC(C)(C)C2=C3CN(Cc3ccccc3)CC2)cc1 (stereo not drawn)
Activity (Rattus norvegicus [1]): inactive
inhibition (Mus musculus [2]): inactive

CC(CCCCc1ccc(F)cc1)c1cc(O)c2c(c1)OC(C)(C)C1=C2CNCC1 (stereo not drawn)
Activity (Rattus norvegicus [1]): inactive
inhibition (Mus musculus [2]): inactive

CC(CCCc1ccc(F)cc1)c1cc(O)c2c(c1)OC(C)(C)C1=C2CN(Cc2ccccc2)CC1 (stereo not drawn)
Activity (Rattus norvegicus [1]): inactive
inhibition (Mus musculus [2]): inactive
